According to patent US5602099A, “δ opioid receptor antagonists” (Aktiebolaget Astra, priority 1993, dated 1997):
Where two headings read alike, the source gives them in different places. Peptide text beside a SMILES is read from it.

How the values were obtained:
δ opioid receptors = target: T1, δ opioid receptors (Mus musculus, UniProt P32300); assay: Mouse vas deferens (MVD) bioassay, antagonism of electrically evoked contraction inhibition by δ-selective agonists; format: tissue-based; details: MVD assay, means of 3-8 determinations
T1 construct: Bioassays Using Isolated Organ Preparations; from tissue; host or cells: mouse vas deferens (isolated organ)
Source text: a) Biosassys based on inhibition of electrically evoked contractions of the mouse vas deferens (MVD) and of the guinea pig ileum (GPI). In the GPI assay the opioid effect is primarily mediated by μ opioid receptors, whereas in the MVD assay the inhibition of the contractions is mostly due to interaction with δ opioid receptors.
The GPI and MVD bioassays were carded out as reported in P. W. Schiller et al., Biochem. Biophys. Res. Commun 85, 1332-1338 (1978) and J. Di Maio et al., J. Med. Chem. 25, 1432-1438 (1982). A log dose-response curve was determind with [Leu^5 ]enkephalin as standard for each ileum and vas preparation, and IC50 values of the compounds being tested were normalized according to A. A Waterfield et al., Eur. J. Pharmacol. 58, 11-18 (1979). […] These determinations were made with the MVD assay, using three different δ-selective agonists ([Leu^5 ] enkephalin, DPDPE and [D-Ala^2 ]deltorphin I].

μ opioid receptor = target: T2, μ opioid receptor (Rattus norvegicus, UniProt P33535); assay: μ opioid receptor binding assay, displacement of [3H]DAMGO from rat brain membranes
T2 construct: Male Sprague-Dawley rats (300-350 g) from the Canadian Breeding Laboratories were decapitated and after removal of the cerebellum the brains were homogenized; from tissue; host or cells: rat brain (without cerebellum) membranes, male Sprague-Dawley
Source text: (§1) In the case of κ-ligands guinea pig brain homogenates were used, since the relative proportion of κ-binding sites is higher in guinea pig brain than in rat brain. The experimental procedure being used in our laboratory represents a modified version of the binding assay described by Pasternak et al. (Mol. Pharmacol. 11, 340-351, (1975)). Male Sprague-Dawley rats (300-350 g) from the Canadian Breeding Laboratories were decapitated and after removal of the cerebellum the brains were homogenized in 30 volumes of ice-cold standard buffer (50 mM Tris-HCl, pH 7.7). After centrifugation at 30,000×g for 30 min at 4° C. the membranes were reconstituted in the original volume of standard buffer and incubated for 30 min at 37° C. (to realease bound endogenous ligands). […] The incubation was terminated by filtration through Batman GF/B filters under vacuum at 4° C. Following two washings with 5 ml portions of ice-cold standard buffer the filters were transferred to scintillation vials and treated with 1 ml Protosol (New England Nuclear) for 30 min prior to the addition of 0.5 ml acetic acid and 10 ml Aquasol (New England Nuclear). After shaking for 30 min the vials were counted at an efficiency of 40-45%. All experiments were performed in duplicates and repeated at least three times. […] Values of half-maximal inhibition (IC50) of specific binding were obtained graphically from semilogarithmic plots. From the measured IC50-values, binding inhibition constants (Ki) were then calculated based on Cheng and Prusoff's equation (Biochem, Pharmacol. 22, 3099-3102 (1973)). Ratios of the Ki -values in the μ-, δ- and κ-representative binding assays are a measure of the receptor selectivety of the compound under investigation (e.g. Ki^μ /Ki^δ indicates the selectivity for δ-receptors versus μ-receptors).

δ opioid receptor = target: T3, δ opioid receptor (Rattus norvegicus, UniProt P33533); assay: δ opioid receptor binding assay, displacement of δ-selective radioligand from rat brain membranes; details: for Ki^μ /Ki^δ: δ-selectivity ratio
T3 construct: Male Sprague-Dawley rats (300-350 g) from the Canadian Breeding Laboratories were decapitated and after removal of the cerebellum the brains were homogenized; from tissue; host or cells: rat brain (without cerebellum) membranes, male Sprague-Dawley
Source text: as §1

[1] = δ agonist DPDPE, read-out: Ke (nM) against DPDPE
[2] = δ agonist [D-Ala2]deltorphin I, read-out: Ke (nM) against [D-Ala2]deltorphin I
[3] = δ agonist [Leu5]enkephalin, read-out: Ke (nM) against [Leu5]Enkephalin
[4] = rat brain membranes, means of 3 determinations, read-out: Ki^μ
[5] = rat brain membranes, means of 3 determinations, read-out: Ki^.xi.
[6] = Ke (nM) against [D-Ala2]deltorphin I, δ agonist [D-Ala2]deltorphin I
[7] = Ke (nM) against [Leu5]Enkephalin, δ agonist [Leu5]enkephalin
[8] = Ke (nM) against DPDPE, δ agonist DPDPE

T1 sequence (P32300 whole entry): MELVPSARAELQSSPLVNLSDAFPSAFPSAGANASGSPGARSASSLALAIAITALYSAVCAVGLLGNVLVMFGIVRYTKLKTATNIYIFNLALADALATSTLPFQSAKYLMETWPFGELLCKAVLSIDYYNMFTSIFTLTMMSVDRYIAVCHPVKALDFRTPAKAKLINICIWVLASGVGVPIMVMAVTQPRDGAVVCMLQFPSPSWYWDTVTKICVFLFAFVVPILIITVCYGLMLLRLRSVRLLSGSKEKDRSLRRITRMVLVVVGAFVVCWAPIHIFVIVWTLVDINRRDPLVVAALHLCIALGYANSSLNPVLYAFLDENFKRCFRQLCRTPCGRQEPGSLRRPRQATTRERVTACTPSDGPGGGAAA
T3 sequence (P33533 whole entry): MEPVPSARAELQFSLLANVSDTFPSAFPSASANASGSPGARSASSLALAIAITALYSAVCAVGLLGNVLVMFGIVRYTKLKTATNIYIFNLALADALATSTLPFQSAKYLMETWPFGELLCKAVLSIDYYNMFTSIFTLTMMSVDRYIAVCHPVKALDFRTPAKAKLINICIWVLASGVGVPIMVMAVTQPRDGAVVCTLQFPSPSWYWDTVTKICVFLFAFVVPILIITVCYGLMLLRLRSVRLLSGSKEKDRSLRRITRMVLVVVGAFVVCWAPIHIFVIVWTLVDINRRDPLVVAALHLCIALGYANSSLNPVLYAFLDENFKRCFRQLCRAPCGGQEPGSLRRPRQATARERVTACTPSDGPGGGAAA
T2 sequence (P33535 whole entry): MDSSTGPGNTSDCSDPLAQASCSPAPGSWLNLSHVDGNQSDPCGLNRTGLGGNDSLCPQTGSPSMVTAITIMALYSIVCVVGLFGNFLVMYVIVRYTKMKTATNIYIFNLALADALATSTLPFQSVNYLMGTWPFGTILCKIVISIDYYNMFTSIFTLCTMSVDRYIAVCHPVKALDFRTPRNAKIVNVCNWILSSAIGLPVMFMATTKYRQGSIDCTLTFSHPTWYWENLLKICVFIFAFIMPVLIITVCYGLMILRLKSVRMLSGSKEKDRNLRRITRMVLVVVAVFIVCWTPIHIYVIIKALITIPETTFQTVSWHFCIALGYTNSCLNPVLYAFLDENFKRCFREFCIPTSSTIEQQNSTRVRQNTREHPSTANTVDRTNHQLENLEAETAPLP

| Compound | Kb (δ opioid receptors; [1]) [nM] | Kb (δ opioid receptors; [2]) [nM] | Kb (δ opioid receptors; [3]) [nM] | Ki (μ opioid receptor; [4]) [nM] | Ki (δ opioid receptor; [5]) [nM] | Kb (δ opioid receptors; [6]) [nM] | Kb (δ opioid receptors; [7]) [nM] | Kb (δ opioid receptors; [8]) [nM] | Ki^μ /Ki^δ (δ opioid receptor) | Ki (μ opioid receptor) [nM] | Ki (δ opioid receptor) [nM] | δ-selectivity, times less than the δ antagonists of this application (δ opioid receptor; comparison with the δ antagonists described in this patent application) |
| --- | --- | --- | --- | --- | --- | --- | --- | --- | --- | --- | --- | --- |
| N[C@@H](Cc1ccc(O)cc1)C(=O)N1Cc2ccccc2C[C@H]1CN[C@@H](Cc1ccccc1)C(=O)O [HTyrTic-.psi.[CH2NH]PheOH, H-Tyr-Tic.PSI.[CH2 -NH]Phe-OH] | 9.06 | 8.24 | 9.12 | 10800 | 1.94 |  |  |  |  |  |  |  |
| NC(=O)[C@H](Cc1ccccc1)NC(=O)[C@H](Cc1ccccc1)NC(=O)[C@@H]1Cc2ccccc2CN1C(=O)[C@@H](N)Cc1ccc(O)cc1 [HTyrTicPhePheNH2, H-Tyr-Tic-Phe-Phe-NH2] (HELM PEPTIDE1{Y.[Tic].F.F.[am]}$$$$V2.0) | 18 |  |  | 78.8 | 3 | 14.4 | 15.7 |  |  |  |  |  |
| N[C@@H](Cc1ccc(O)cc1)C(=O)N1Cc2ccccc2C[C@H]1C(=O)N[C@@H](Cc1c[nH]c2ccccc12)C(=O)N[C@@H](Cc1ccccc1)C(=O)O [HTyrTicTrpPheOH, H-Tyr-Tic-Trp-Phe-OH] (HELM PEPTIDE1{Y.[Tic].W.F}$$$$V2.0) |  |  |  |  |  | 1.65 | 2.37 | 2.56 | 5950 |  |  |  |
| CCCCCCN[C@@H](Cc1ccc(O)cc1)C(=O)N1Cc2ccccc2C[C@H]1C(=O)N[C@@H](Cc1ccccc1)C(=O)N[C@@H](Cc1ccccc1)C(=O)O [Tyr(N^α Hex)-TicPhePheOH, Tyr(N^α Hex)-Tic-Phe-Phe-OH] |  |  |  |  |  | 10.6 | 9.37 | 4.28 |  | 1080 | 0.951 |  |
| NC(=O)[C@H](Cc1c[nH]c2ccccc12)NC(=O)[C@H](Cc1ccccc1)NC(=O)[C@@H]1Cc2ccccc2CN1C(=O)[C@@H](N)Cc1ccc(O)cc1 [HTyrTicPheTrpNH2, H-Tyr-Tic-Phe-Trp-NH2] (HELM PEPTIDE1{Y.[Tic].F.W.[am]}$$$$V2.0) |  |  |  |  |  | 38.6 | 49.5 | 41.3 | 258 |  |  |  |
| N[C@@H](Cc1ccc(O)cc1)C(=O)N1Cc2ccccc2C[C@H]1C(=O)N[C@@H](Cc1cccc2ccccc12)C(=O)N[C@@H](Cc1ccccc1)C(=O)O [HTyrTic-1-NalPheOH, H-Tyr-Tic-1-Nal-Phe-OH] (HELM PEPTIDE1{Y.[Tic].[O=C([C@H](Cc1cccc2ccccc12)N[*:1])[*:2]].F}$$$$V2.0) |  |  |  |  |  |  |  |  | 982 | 1120 | 1.14 |  |
| CC(C)[C@H](NC(=O)[C@H](Cc1ccccc1)NC(=O)[C@H](Cc1ccccc1)NC(=O)[C@@H]1Cc2ccccc2CN1C(=O)[C@@H](N)Cc1ccc(O)cc1)C(=O)N[C@H](C(=O)NCC(N)=O)C(C)C [HTyrTicPhePheValValGlyNH2, H-Tyr-Tic-Phe-Phe-Val-Val-Gly-NH2] (HELM PEPTIDE1{Y.[Tic].F.F.V.V.G.[am]}$$$$V2.0) |  |  |  |  |  | 4.96 | 6.48 | 6.36 | 2300 | 3290 | 1.43 |  |
| NC(=O)[C@H](CO)NC(=O)[C@@H]1CCCN1C(=O)[C@H](Cc1ccc(O)cc1)NC(=O)[C@H](Cc1ccccc1)NC(=O)[C@H](Cc1ccccc1)NC(=O)[C@@H]1Cc2ccccc2CN1C(=O)[C@@H](N)Cc1ccc(O)cc1 [HTyrTicPhePheTyrProSerNH2, H-Tyr-Tic-Phe-Phe-Tyr-Pro-Ser-NH2] (HELM PEPTIDE1{Y.[Tic].F.F.Y.P.S.[am]}$$$$V2.0) |  |  |  |  |  | 3.9 | 4.78 | 4.63 | 731 | 658 ± 136 | 0.9 |  |
| Cc1cc(O)cc(C)c1C[C@H](N)C(=O)N1Cc2ccccc2C[C@H]1CN[C@@H](Cc1ccccc1)C(=O)N[C@@H](Cc1ccccc1)C(=O)O [HDmtTic.psi.[CH2NH]PhePheOH, H-Dmt-Tic.PSI.[CH2 --NH]Phe-Phe-OH] |  |  |  |  |  | 0.157 | 0.259 | 0.196 |  | 95.5 | 1.7 |  |
| NC(=O)[C@H](Cc1ccccc1)NC(=O)[C@H](Cc1c[nH]c2ccccc12)NC(=O)[C@@H]1Cc2ccccc2CN1C(=O)[C@@H](N)Cc1ccc(O)cc1 [HTyrTicTrpPheNH2, H-Tyr-Tic-Trp-Phe-NH2] (HELM PEPTIDE1{Y.[Tic].W.F.[am]}$$$$V2.0) |  |  |  |  |  | 2.31 | 3.24 | 4.65 | 709 |  |  |  |
| CN(C[C@@H]1Cc2ccccc2CN1C(=O)[C@@H](N)Cc1ccc(O)cc1)[C@@H](Cc1ccccc1)C(=O)N[C@@H](Cc1ccccc1)C(=O)O [HTyrTic.psi.[CH2NCH3]PhePheOH, H-Tyr-Tic.PSI.[CH2 --NCH3 ]Phe-Phe-OH] | 4.76 | 2.89 | 6.28 | 13400 | 0.842 |  |  |  |  |  |  |  |
| N[C@@H](Cc1ccc(O)cc1)C(=O)N1Cc2ccccc2C[C@H]1C(=O)N[C@@H](Cc1ccccc1)C(=O)O [HTyrTicPheOH, H-Tyr-Tic-Phe-OH] (HELM PEPTIDE1{Y.[Tic].F}$$$$V2.0) |  |  |  | 1280 | 9.07 | 12.6 | 11.7 | 16.1 | 141 |  |  |  |
| N[C@@H](Cc1ccc(O)cc1)C(=O)N1Cc2ccccc2C[C@H]1C(=O)N[C@@H](Cc1c[nH]cn1)C(=O)N[C@@H](Cc1ccccc1)C(=O)O [HTyrTicHisPheOH, H-Tyr-Tic-His-Phe-OH] (HELM PEPTIDE1{Y.[Tic].H.F}$$$$V2.0) |  |  |  |  |  | 18.7 | 20.1 | 18.2 | 11500 | 17000 | 1.48 |  |
| NC(=O)[C@H](Cc1ccccc1)NC(=O)[C@@H]1Cc2ccccc2CN1C(=O)[C@@H](N)Cc1ccc(O)cc1 [HTyrTicPheNH2, H-Tyr-Tic-Phe-NH2] (HELM PEPTIDE1{Y.[Tic].F.[am]}$$$$V2.0) |  |  |  |  |  | 58.9 | 43.9 | 96.8 | 52.0 |  |  |  |
| N[C@@H](Cc1ccc(O)cc1)C(=O)N1Cc2ccccc2C[C@H]1C(=O)N[C@H](C(=O)N[C@@H](Cc1ccccc1)C(=O)O)c1ccccc1 [HTyrTicPhgPheOH, H-Tyr-Tic-Phg-Phe-OH] (HELM PEPTIDE1{Y.[Tic].[Phg].F}$$$$V2.0) |  |  |  |  |  | 8.31 | 13.8 | 21.5 | 9630 | 29000 | 3.01 |  |
| N=C(N)NCCC[C@H](N)C(=O)N[C@@H](Cc1ccc(O)cc1)C(=O)N1Cc2ccccc2C[C@H]1C(=O)N[C@@H](Cc1ccccc1)C(=O)N[C@@H](Cc1ccccc1)C(N)=O [HArgTyrTicPhePheNH2, H-Arg-Tyr-Tic-Phe-Phe-NH2] (HELM PEPTIDE1{R.Y.[Tic].F.F.[am]}$$$$V2.0) |  |  |  | 107 ± 2 | 4.79 |  |  |  | 22.3 |  |  |  |
| N[C@@H](Cc1ccc(O)cc1)C(=O)N1Cc2ccccc2C[C@H]1C(=O)N[C@@H](Cc1ccc2ccccc2c1)C(=O)N[C@@H](Cc1ccccc1)C(=O)O [HTyrTic-2-NalPheOH, H-Tyr-Tic-2-Nal-Phe-OH] (HELM PEPTIDE1{Y.[Tic].[O=C([C@H](Cc1ccc2ccccc2c1)N[*:1])[*:2]].F}$$$$V2.0) |  |  |  |  |  | 4.17 | 2.64 | 4.41 | 4830 | 6330 | 1.31 |  |
| C=CCN(CC=C)[C@@H](Cc1ccc(O)cc1)C(=O)NC(C)(C)C(=O)NC(C)(C)C(=O)N[C@@H](Cc1ccccc1)C(=O)N[C@@H](CC(C)C)C(=O)O [ICI 174864, N,N-diallyl-Tyr-Aib-Aib-Phe-Leu-OH, reference compound] (HELM PEPTIDE1{[C=CCN(CC=C)[C@@H](Cc1ccc(O)cc1)C(=O)[*:2]].[Aib].[Aib].F.L}$$$$V2.0) |  |  |  |  |  |  |  |  |  |  |  | 10-300 times |
